Assay results published in ChEMBL document CHEMBL1201862, “PubChem BioAssay data set” (2004).
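Tested at 5 concentrations; 48 h exposure; 96-well plates; endpoints linearly interpolated, else capped at highest concentration. GI50 is the concentration that inhibits growth by half.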 Calls of active or inactive are those of the source. Rule as the data show it: active = GI50 up to about 1.1 µM and inactive = higher.

Legend:
Experiment in all cases: growth of human tumour cells (NCI), 48 h
HOP-62 = tested on: HOP-62
Malme-3M = tested on: Malme-3M
Hs-578T = tested on: Hs-578T
SW-620 = tested on: SW-620
SF-268 = tested on: SF-268
HOP-92 = tested on: HOP-92
NCI-H23 = tested on: NCI-H23
RPMI-8226 = tested on: RPMI-8226
MOLT-4 = tested on: MOLT-4
TK-10 = tested on: TK-10
OVCAR-5 = tested on: OVCAR-5
MDA-MB-435 = tested on: MDA-MB-435
HCC 2998 = tested on: HCC 2998
KM12 = tested on: KM12
IGROV-1 = tested on: IGROV-1
SK-MEL-2 = tested on: SK-MEL-2
SNB-75 = tested on: SNB-75
SN12C = tested on: SN12C
CCRF-CEM = tested on: CCRF-CEM
SR = tested on: SR
HL-60 = tested on: HL-60
SK-OV-3 = tested on: SK-OV-3
NCI/ADR-RES = tested on: NCI/ADR-RES
NCI-H226 = tested on: NCI-H226
LOX IMVI = tested on: LOX IMVI
SF-295 = tested on: SF-295
OVCAR-4 = tested on: OVCAR-4
CAKI-1 = tested on: CAKI-1
OVCAR-8 = tested on: OVCAR-8
UO-31 = tested on: UO-31
SF-539 = tested on: SF-539
A498 = tested on: A498
SK-MEL-28 = tested on: SK-MEL-28
DU-145 = tested on: DU-145
MDA-MB-231 = tested on: MDA-MB-231
A549 = tested on: A549
OVCAR-3 = tested on: OVCAR-3
HCT-116 = tested on: HCT-116
SNB-19 = tested on: SNB-19
NCI-H460 = tested on: NCI-H460
MDA-N = tested on: MDA-N
COLO 205 = tested on: COLO 205
U-251 = tested on: U-251
M14 = tested on: M14
UACC-62 = tested on: UACC-62
RXF 393 = tested on: RXF 393
EKVX = tested on: EKVX
HT-29 = tested on: HT-29
T47D = tested on: T47D
PC-3 = tested on: PC-3
SK-MEL-5 = tested on: SK-MEL-5
UACC-257 = tested on: UACC-257
K562 = tested on: K562
ACHN = tested on: ACHN
786-0 = tested on: 786-0
MCF7 = tested on: MCF7
BT-549 = tested on: BT-549
NCI-H522 = tested on: NCI-H522
HCT-15 = tested on: HCT-15

Measured: GI50

COc1ccc(N/N=C2\C3=C(CCC(C)(C)O3)C(=O)c3ccccc32)cc1
inactive: HOP-62 20.9 µM | Malme-3M 20.9 µM | Hs-578T 19.1 µM | SW-620 34 µM | SF-268 15.3 µM | HOP-92 21.1 µM | NCI-H23 18 µM | RPMI-8226 16.8 µM | MOLT-4 18.1 µM | TK-10 20.5 µM | OVCAR-5 19.4 µM | MDA-MB-435 17.1 µM | HCC 2998 12.1 µM | KM12 13.4 µM | IGROV-1 15.2 µM | SK-MEL-2 21.8 µM | SNB-75 19 µM | SN12C 17.9 µM | CCRF-CEM 16 µM | SR 12.6 µM | HL-60 15.3 µM | SK-OV-3 37 µM | NCI/ADR-RES 19.6 µM | NCI-H226 52.6 µM | LOX IMVI 16.2 µM | SF-295 14.8 µM | OVCAR-4 18.3 µM | CAKI-1 20 µM | OVCAR-8 26.5 µM | UO-31 18.1 µM | SF-539 24.4 µM | A498 15 µM | SK-MEL-28 22.2 µM | DU-145 25.2 µM | MDA-MB-231 22.2 µM | A549 16.6 µM | OVCAR-3 14.9 µM | HCT-116 14.1 µM | SNB-19 21.9 µM | NCI-H460 14.2 µM | MDA-N 15.6 µM | COLO 205 22.9 µM | U-251 19.2 µM | M14 20.7 µM | UACC-62 14.5 µM | RXF 393 12.4 µM | EKVX 18.1 µM | HT-29 13.6 µM | T47D 2.51 µM | PC-3 21.9 µM | SK-MEL-5 12.2 µM | UACC-257 19.7 µM | K562 15.9 µM | ACHN 13.7 µM | 786-0 18.3 µM | MCF7 12.4 µM | BT-549 19.1 µM | NCI-H522 17 µM
13.7 µM: HCT-15

CC(C)[Si](OC1=C(C(=O)Nc2ccccc2Cl)CCCCC1)(C(C)C)C(C)C
active: CCRF-CEM 0.462 µM
inactive: HOP-62 > 100 µM | Malme-3M > 100 µM | Hs-578T > 100 µM | SW-620 > 100 µM | SF-268 > 100 µM | HOP-92 > 100 µM | NCI-H23 > 100 µM | RPMI-8226 > 100 µM | MOLT-4 > 100 µM | TK-10 > 100 µM | OVCAR-5 97.9 µM | MDA-MB-435 > 100 µM | HCC 2998 > 100 µM | KM12 > 100 µM | IGROV-1 > 100 µM | SK-MEL-2 > 100 µM | SNB-75 > 78.2 µM | SN12C > 100 µM | SR > 100 µM | HL-60 1.97 µM | SK-OV-3 > 100 µM | NCI/ADR-RES > 100 µM | NCI-H226 > 100 µM | LOX IMVI > 100 µM | SF-295 > 100 µM | OVCAR-4 > 100 µM | CAKI-1 > 100 µM | OVCAR-8 > 100 µM | UO-31 > 100 µM | SF-539 > 100 µM | A498 > 100 µM | SK-MEL-28 > 100 µM | DU-145 > 100 µM | MDA-MB-231 > 100 µM | A549 > 100 µM | OVCAR-3 > 100 µM | HCT-116 > 100 µM | SNB-19 > 100 µM | NCI-H460 > 100 µM | MDA-N > 100 µM | COLO 205 > 100 µM | U-251 > 100 µM | M14 > 100 µM | UACC-62 > 100 µM | RXF 393 > 100 µM | EKVX > 100 µM | HT-29 > 100 µM | T47D > 100 µM | PC-3 > 100 µM | SK-MEL-5 > 100 µM | UACC-257 > 100 µM | K562 > 100 µM | ACHN > 100 µM | 786-0 > 100 µM | MCF7 > 100 µM | BT-549 > 100 µM | NCI-H522 > 100 µM
> 100 µM: HCT-15

CCCCCCCCCCCCCCC(O)C[N+](C)(CCO)CCO (configuration not stated)
5.96 µM: HCT-15
active: HOP-92 0.885 µM | SNB-75 0.746 µM | HL-60 0.585 µM
inactive: HOP-62 2.19 µM | Malme-3M 2.06 µM | Hs-578T 2.17 µM | SW-620 6.22 µM | SF-268 1.89 µM | NCI-H23 4.49 µM | RPMI-8226 1.92 µM | MOLT-4 1.91 µM | TK-10 1.39 µM | OVCAR-5 2.46 µM | MDA-MB-435 6.12 µM | HCC 2998 1.73 µM | KM12 1.94 µM | IGROV-1 1.15 µM | SK-MEL-2 7.31 µM | SN12C 4.7 µM | CCRF-CEM 1.57 µM | SR 1.92 µM | SK-OV-3 12.9 µM | NCI/ADR-RES 20.3 µM | NCI-H226 2.04 µM | LOX IMVI 1.48 µM | SF-295 2.25 µM | OVCAR-4 3.73 µM | CAKI-1 1.32 µM | OVCAR-8 4.11 µM | UO-31 4.27 µM | SF-539 2.4 µM | A498 4.99 µM | SK-MEL-28 9.79 µM | DU-145 11 µM | MDA-MB-231 1.14 µM | A549 10.2 µM | OVCAR-3 3.13 µM | HCT-116 5.79 µM | SNB-19 1.49 µM | NCI-H460 2.56 µM | MDA-N 5.86 µM | COLO 205 1.72 µM | U-251 1.53 µM | M14 1.59 µM | UACC-62 2.47 µM | RXF 393 1.41 µM | EKVX 17.7 µM | HT-29 2.12 µM | T47D 8.07 µM | PC-3 1.72 µM | SK-MEL-5 4.06 µM | UACC-257 11.1 µM | K562 4.24 µM | ACHN 6.01 µM | 786-0 1.98 µM | MCF7 12.6 µM | BT-549 3.05 µM | NCI-H522 1.64 µM
